From patent US8921410B2, “Nicotinic acetylcholine receptor sub-type selective amides of diazabicycloalkanes” (Targacept, Inc., priority 2006, dated 2014)
Where two headings read alike, the source gives them in different places.

Key:
[1] = molecular target: rat α4β2 nAChR subtype (Rattus norvegicus (Rat), UniProt P09483+P12390); assay: Radioligand ([3H]nicotine) binding at α4β2 nAChR, rat cortex membranes
Procedure: Preparation of Membranes from Rat Cortex:
(§1) Rats (female, Sprague-Dawley), weighing 150-250 g, were maintained on a 12 h light/dark cycle and were allowed free access to water and food supplied by PMI Nutrition International, Inc. Animals were anesthetized with 70% CO2, and then decapitated. Brains were removed and placed on an ice-cold platform. […] The homogenate was centrifuged at 18,000×g for 20 min at 4° C. and the resulting pellet was re-suspended in 20 volumes of ice-cold water. After 60 min incubation on ice, a new pellet was collected by centrifugation at 18,000×g for 20 min at 4° C. The final pellet was re-suspended in 10 volumes of buffer and stored at −20° C.
(§2) On the day of the assay, the frozen membranes were thawed and spun at 48,000×g for 20 min. The supernatant was decanted and discarded. The pellet was resuspended in Dulbecco's phosphate buffered saline (PBS, Life Technologies) pH 7.4 and homogenized with the Polytron for 6 seconds. Protein concentrations were determined using a Pierce BCA Protein Assay Kit, with bovine serum albumin as the standard (Pierce Chemical Company, Rockford, Ill.).
(§3) Tissue was rinsed 3 times in PBS, pH 7.4. Scintillation fluid was added to filters containing the washed tissue and allowed to equilibrate.
(§4) Data were expressed as disintegrations per minute (DPMs). Within each assay, each point had 2-3 replicates. The replicates for each point were averaged and plotted against the log of the drug concentration.

[2] = molecular target: human α4β2 nAChR subtype (Homo sapiens (Human), UniProt P17787+P43681); assay: Radioligand ([3H]nicotine) binding at α4β2 nAChR, SH-EP1/human α4β2 clonal cell membranes; details: read-out: Human α4β2 Ki
Procedure: Preparation of Membranes from SH-EP1/Human α4β2 Clonal Cells:
Cell pellets from 40 150 mm culture dishes were pooled, and homogenized by Polytron (Kinematica GmbH, Switzerland) in 20 milliliters of ice-cold preparative buffer. The homogenate was centrifuged at 48,000 g for 20 minutes at 4° C. The resulting pellet was re-suspended in 20 mL of ice-cold preparative buffer and stored at −20° C.
as §2, §3, §4

[3] = molecular target: α7 nAChR subtype (Rattus norvegicus (Rat), UniProt Q05941); assay: Radioligand ([3H]MLA) binding at α7 nAChR, rat hippocampus membranes
Procedure: as §1, with “CO2,” for “CO2, and”, “in 10” for “in 20”
The binding of [^3H]MLA was measured using a modification of the methods of Davies et al., Neuropharmacol. […] [^3H]MLA (Specific Activity=25-35 Ci/mmol) was obtained from Tocris. The binding of [^3H]MLA was determined using a 2 h incubation at 21° C. Incubations were conducted in 48-well micro-titre plates and contained about 200 μg of protein per well in a final incubation volume of 300 μL. The incubation buffer was PBS and the final concentration of [^3H]MLA was 5 nM. The binding reaction was terminated by filtration of the protein containing bound ligand onto glass fiber filters (GF/B, Brandel) using a Brandel Tissue Harvester at room temperature. […] Each filter was washed with PBS (3×1 mL) at room temperature. Non-specific binding was determined by inclusion of 50 μM non-radioactive MLA in selected wells.
The inhibition of [^3H]MLA binding by test compounds was determined by including seven different concentrations of the test compound in selected wells. Each concentration was replicated in triplicate. IC50 values were estimated as the concentration of compound that inhibited 50 percent of specific [^3H]MLA binding.

[4] = test system: object recognition in rats; assay: Novel object recognition (NOR) task; assay type: in vivo, rat; details: oral
Procedure: The novel object recognition (NOR) task was performed in accord with the description of Ennaceur and Delacour Behav. Brain Res. 100: 85-92 (1988).

[5] = [3H]nicotine 5 nM, rat cortex membranes
[6] = [3H]nicotine 5 nM, SH-EP1/human α4β2 membranes
[7] = [3H]MLA 5 nM, rat hippocampus membranes
[8] = did not bind sufficiently in HTS at α7 to warrant Ki determination

human α4β2 nAChR subtype, sequence (P43681 29-627): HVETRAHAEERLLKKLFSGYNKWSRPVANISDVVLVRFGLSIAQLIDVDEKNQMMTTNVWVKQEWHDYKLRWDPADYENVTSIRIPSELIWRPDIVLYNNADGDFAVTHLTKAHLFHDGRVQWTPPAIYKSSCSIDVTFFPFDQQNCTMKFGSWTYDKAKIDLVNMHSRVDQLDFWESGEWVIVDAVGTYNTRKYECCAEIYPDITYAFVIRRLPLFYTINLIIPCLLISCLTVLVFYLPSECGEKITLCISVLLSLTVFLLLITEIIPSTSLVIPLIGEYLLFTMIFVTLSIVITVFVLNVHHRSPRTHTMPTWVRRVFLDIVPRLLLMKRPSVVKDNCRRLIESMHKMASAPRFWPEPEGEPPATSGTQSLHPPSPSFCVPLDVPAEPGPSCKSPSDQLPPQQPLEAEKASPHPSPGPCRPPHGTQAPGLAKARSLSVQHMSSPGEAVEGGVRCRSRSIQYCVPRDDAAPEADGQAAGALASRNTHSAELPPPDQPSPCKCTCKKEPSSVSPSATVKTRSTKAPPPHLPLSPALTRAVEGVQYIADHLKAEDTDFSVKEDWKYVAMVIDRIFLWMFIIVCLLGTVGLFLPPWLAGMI
human α4β2 nAChR subtype, sequence (P17787 26-502): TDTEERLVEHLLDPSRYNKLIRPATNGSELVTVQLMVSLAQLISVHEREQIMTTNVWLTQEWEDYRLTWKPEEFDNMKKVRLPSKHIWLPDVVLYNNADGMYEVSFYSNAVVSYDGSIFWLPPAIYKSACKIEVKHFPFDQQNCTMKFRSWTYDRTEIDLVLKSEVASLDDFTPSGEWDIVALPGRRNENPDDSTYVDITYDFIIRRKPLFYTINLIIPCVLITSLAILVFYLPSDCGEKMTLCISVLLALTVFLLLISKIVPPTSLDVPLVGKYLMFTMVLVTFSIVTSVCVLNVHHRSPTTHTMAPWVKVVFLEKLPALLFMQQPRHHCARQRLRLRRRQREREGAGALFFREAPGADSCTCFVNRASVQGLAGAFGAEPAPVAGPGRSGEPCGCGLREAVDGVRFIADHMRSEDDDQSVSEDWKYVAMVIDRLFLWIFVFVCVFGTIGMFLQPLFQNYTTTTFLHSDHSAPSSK
rat α4β2 nAChR subtype, sequence (P09483 31-630): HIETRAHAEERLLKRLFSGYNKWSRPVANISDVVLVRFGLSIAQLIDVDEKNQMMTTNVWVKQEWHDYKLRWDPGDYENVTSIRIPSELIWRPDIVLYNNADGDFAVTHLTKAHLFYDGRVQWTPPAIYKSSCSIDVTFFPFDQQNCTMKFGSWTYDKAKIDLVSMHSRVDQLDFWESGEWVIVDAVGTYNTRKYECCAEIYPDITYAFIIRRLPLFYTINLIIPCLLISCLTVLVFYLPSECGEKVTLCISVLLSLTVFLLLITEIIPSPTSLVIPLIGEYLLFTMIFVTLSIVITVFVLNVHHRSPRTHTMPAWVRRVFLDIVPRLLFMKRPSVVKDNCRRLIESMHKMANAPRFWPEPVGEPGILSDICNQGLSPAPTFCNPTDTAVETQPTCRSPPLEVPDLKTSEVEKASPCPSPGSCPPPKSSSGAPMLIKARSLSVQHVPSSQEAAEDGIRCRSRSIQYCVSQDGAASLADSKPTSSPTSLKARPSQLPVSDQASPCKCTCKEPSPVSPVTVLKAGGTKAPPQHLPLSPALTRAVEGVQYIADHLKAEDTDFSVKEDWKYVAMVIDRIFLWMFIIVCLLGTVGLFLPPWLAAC
rat α4β2 nAChR subtype, sequence (P12390 25-500): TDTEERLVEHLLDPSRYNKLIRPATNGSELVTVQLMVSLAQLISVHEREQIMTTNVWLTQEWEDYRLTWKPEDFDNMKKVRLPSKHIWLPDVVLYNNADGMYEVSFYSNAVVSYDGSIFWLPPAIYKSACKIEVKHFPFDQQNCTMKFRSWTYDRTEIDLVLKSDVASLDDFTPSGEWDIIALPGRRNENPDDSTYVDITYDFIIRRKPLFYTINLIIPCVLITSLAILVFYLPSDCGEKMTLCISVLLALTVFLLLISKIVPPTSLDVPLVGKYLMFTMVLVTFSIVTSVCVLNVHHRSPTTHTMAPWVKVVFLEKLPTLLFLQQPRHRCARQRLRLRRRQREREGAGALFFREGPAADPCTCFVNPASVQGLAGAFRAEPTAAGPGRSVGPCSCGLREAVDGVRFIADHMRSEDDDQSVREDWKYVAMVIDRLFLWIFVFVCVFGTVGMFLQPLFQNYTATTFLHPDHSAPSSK
α7 nAChR subtype, sequence (Q05941 23-502): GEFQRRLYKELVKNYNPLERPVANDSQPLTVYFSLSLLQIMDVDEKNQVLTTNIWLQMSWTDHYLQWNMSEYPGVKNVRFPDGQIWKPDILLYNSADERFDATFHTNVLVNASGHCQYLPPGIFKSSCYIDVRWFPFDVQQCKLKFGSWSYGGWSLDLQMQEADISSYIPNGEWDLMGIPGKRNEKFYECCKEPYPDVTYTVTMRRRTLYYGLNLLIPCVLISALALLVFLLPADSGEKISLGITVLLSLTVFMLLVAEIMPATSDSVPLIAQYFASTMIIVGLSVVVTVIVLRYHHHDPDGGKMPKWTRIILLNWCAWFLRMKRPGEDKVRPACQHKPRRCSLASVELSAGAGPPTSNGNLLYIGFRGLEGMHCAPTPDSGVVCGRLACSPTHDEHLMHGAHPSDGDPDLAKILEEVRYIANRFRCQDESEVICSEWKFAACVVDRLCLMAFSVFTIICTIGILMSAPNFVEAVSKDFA

With `O=C(c1ccc(Cl)o1)N1CC2CNCC(C2)C1` [N-(5-chlorofuran-2-ylcarbonyl)-3,7-diazabicyclo[3.3.1]nonane] as the compound, how does the Ki [1, 5] read?
The Ki was 0.015 µM.

And the Ki [2, 6]?
Its Ki is 0.0073 µM.

What about the Ki [3, 7] of the same compound?
Its Ki is 120 µM.

And the “activity in object recognition (OR)” value ([4]; 0.3 mg/kg (FIG. 2))?
The value was “active”.

Which results are given for `O=C(c1ccc(Cl)o1)N1CC2CNCC2C1` (centres unmarked) [N-(5-chlorofuran-2-ylcarbonyl)-3,7-diazabicyclo[3.3.0]octane]?
Ki [1, 5]: 0.033 µM; Ki [2, 6]: 0.028 µM; Ki [3, 7]: 91 µM; activity in object recognition (OR) ([4]; 0.1 mg/kg (FIG. 1)): active

For `COc1cc(C(=O)N2CC3CNCC3C2)on1` (centres unmarked), which Ki [1, 5] is on record?
The Ki was 0.019 µM.

And the Ki [2, 6]?
The Ki was 0.019 µM.

And the Ki [3, 7]?
The Ki was 3.5 µM.

How did the Ki [1, 5] turn out when `Cc1oncc1C(=O)N1CC2CNCC(C2)C1` was run?
The Ki was 0.065 µM.

What about the Ki [2] of the same compound?
Its Ki is 0.031 µM.

What about the “α7 high through-put screening outcome (Ki not determined)” value [3, 8] of the same compound?
The value was “ND; failed HTS”.

For `O=C(c1occc1F)N1CC2CNCC(C2)C1`, which Ki [1, 5] is on record?
The Ki was 0.11 µM.

What about the Ki [2, 6] of the same compound?
The Ki was 0.057 µM.

What about the “α7 high through-put screening outcome (Ki not determined)” value [3, 8] of the same compound?
Its value is “ND; failed HTS”.

Which results are given for `COc1cc(C(=O)N2CC3CNCC(C3)C2)on1`?
Ki [1]: 0.033 µM; Ki [2, 6]: 0.18 µM; α7 high through-put screening outcome (Ki not determined) [3, 8]: ND; failed HTS

`O=C(c1occc1Br)N1CC2CNCC(C2)C1` was tested. Which Ki [1, 5] did it give?
The Ki was 0.079 µM.

What about the Ki [2] of the same compound?
The Ki was 0.017 µM.

And the “α7 high through-put screening outcome (Ki not determined)” value [3, 8]?
Its value is “ND; failed HTS”.

Which results are given for `Cc1cc(C(=O)N2CC3CNCC(C3)C2)on1`?
Ki [1]: 0.029 µM; Ki [2, 6]: 0.047 µM; α7 high through-put screening outcome (Ki not determined) [3, 8]: ND; failed HTS

For `O=C(c1cc(Br)no1)N1CC2CNCC(C2)C1`, which Ki [1, 5] is on record?
Its Ki is 0.0059 µM.

What about the Ki [2] of the same compound?
Its Ki is 0.018 µM.

And the “α7 high through-put screening outcome (Ki not determined)” value [3, 8]?
Its value is “ND; failed HTS”.

`Cc1cc(C(F)(F)F)c(C(=O)N2CC3CNCC3C2)o1` (centres unmarked) was tested. Which Ki [1, 5] did it give?
The Ki was 1 µM.

And the Ki [2, 6]?
Its Ki is 0.045 µM.

What about the “α7 high through-put screening outcome (Ki not determined)” value [3, 8] of the same compound?
The value was “ND; failed HTS”.

For `O=C(c1ccno1)N1CC2CNCC2C1` (centres unmarked), which Ki [1, 5] is on record?
The Ki was 0.043 µM.

And the Ki [2, 6]?
Its Ki is 0.069 µM.

And the “α7 high through-put screening outcome (Ki not determined)” value [3]?
Its value is “ND; failed HTS”.

How did the Ki [1, 5] turn out when `O=C(c1cc(-c2cc(F)cc(F)c2)co1)N1CC2CNCC(C2)C1` was run?
The Ki was 0.0063 µM.

What about the Ki [2, 6] of the same compound?
Its Ki is 0.023 µM.

And the “α7 high through-put screening outcome (Ki not determined)” value [3, 8]?
Its value is “ND; failed HTS”.

Which results are given for `O=C(c1ccno1)N1CC2CNCC(C2)C1`?
Ki [1, 5]: 0.052 µM; Ki [2, 6]: 0.03 µM; α7 high through-put screening outcome (Ki not determined) [3, 8]: ND; failed HTS

Which Ki [1, 5] does the source give for `O=C(c1ccc(F)o1)N1CC2CNCC2C1` (centres unmarked) here?
The Ki was 0.0083 µM.

And the Ki [2, 6]?
The Ki was 0.016 µM.

And the “α7 high through-put screening outcome (Ki not determined)” value [3, 8]?
Its value is “ND; failed HTS”.

Which results are given for `Cc1cc(C(=O)N2CC3CNCC(C3)C2)no1`?
Ki [1]: 0.068 µM; Ki [2]: 0.096 µM; α7 high through-put screening outcome (Ki not determined) [3, 8]: ND; failed HTS

`N#Cc1ccc(C(=O)N2CC3CNCC(C3)C2)o1` was tested. Which Ki [1] did it give?
The Ki was 0.035 µM.

What about the Ki [2] of the same compound?
Its Ki is 0.0087 µM.

And the “α7 high through-put screening outcome (Ki not determined)” value [3, 8]?
The value was “ND; failed HTS”.

Which results are given for `O=C(c1cc(Cl)co1)N1CC2CNCC2C1` (centres unmarked)?
Ki [1, 5]: 0.021 µM; Ki [2, 6]: 0.0097 µM; α7 high through-put screening outcome (Ki not determined) [3, 8]: ND; failed HTS

Which results are given for `O=C(c1occc1Br)N1CC2CNCC2C1` (centres unmarked)?
Ki [1]: 0.0015 µM; Ki [2, 6]: 0.0015 µM; Ki [3, 7]: 12 µM

What does the source list for `O=C(c1ccc(C#Cc2ccccc2)o1)N1CC2CNCC2C1` (centres unmarked)?
Ki [1, 5]: 0.23 µM; Ki [2, 6]: 0.043 µM; Ki [3, 7]: 3.2 µM

With `O=C(c1ccco1)N1CC2CNCC(C2)C1` [N-(furan-2-ylcarbonyl)-3,7-diazabicyclo[3.3.1]nonane] as the compound, how does the Ki [1, 5] read?
Its Ki is 0.031 µM.

And the Ki [2, 6]?
The Ki was 0.0099 µM.

What about the Ki [3] of the same compound?
Its Ki is 15 µM.

With `Cc1ccc(C(=O)N2CC3CNCC(C3)C2)o1` as the compound, how does the Ki [1, 5] read?
Its Ki is 0.1 µM.

And the Ki [2, 6]?
Its Ki is 0.042 µM.

What about the “α7 high through-put screening outcome (Ki not determined)” value [3] of the same compound?
Its value is “ND; failed HTS”.

With `COc1coc(C(=O)N2CC3CNCC3C2)c1OC` (centres unmarked) as the compound, how does the Ki [1, 5] read?
The Ki was 0.14 µM.

And the Ki [2, 6]?
Its Ki is 0.04 µM.

What about the “α7 high through-put screening outcome (Ki not determined)” value [3, 8] of the same compound?
Its value is “ND; failed HTS”.

Which Ki [1, 5] does the source give for `Cc1occc1C(=O)N1CC2CNCC2C1` (centres unmarked) here?
Its Ki is 0.061 µM.

What about the Ki [2, 6] of the same compound?
Its Ki is 0.029 µM.

What about the Ki [3, 7] of the same compound?
Its Ki is 160 µM.
